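Growth conditions: 96-well plates. Treatment: test compound, 48 hours, 5 concentrations. Analysis: linear interpolation between bracketing concentrations; unreached endpoints set to highest concentration. GI50 = concentration required for 50% inhibition of growth.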 Calls of active or inactive are those of the source. No stated cut-off is given here; in the data, active = GI50 up to about 1.1 µM and inactive = higher.
How the values were obtained:
Test in all cases: NCI anticancer screen, dose series, 48 h
A549 = test system: A549
COLO 205 = test system: COLO 205
HCC 2998 = test system: HCC 2998
HOP-62 = test system: HOP-62
K562 = test system: K562
KM12 = test system: KM12
LOX IMVI = test system: LOX IMVI
MCF7 = test system: MCF7
NCI-H226 = test system: NCI-H226
NCI/ADR-RES = test system: NCI/ADR-RES
OVCAR-4 = test system: OVCAR-4
RPMI-8226 = test system: RPMI-8226
RXF 393 = test system: RXF 393
SNB-19 = test system: SNB-19
SR = test system: SR
U-251 = test system: U-251
UACC-62 = test system: UACC-62
UO-31 = test system: UO-31
SF-295 = test system: SF-295
SNB-75 = test system: SNB-75

SMILES | GI50 (A549) | GI50 (COLO 205) | GI50 (HCC 2998) | GI50 (HOP-62) | GI50 (K562) | GI50 (KM12) | GI50 (LOX IMVI) | GI50 (MCF7) | GI50 (NCI-H226) | GI50 (NCI/ADR-RES) | GI50 (OVCAR-4) | GI50 (RPMI-8226) | GI50 (RXF 393) | GI50 (SNB-19) | GI50 (SR) | GI50 (U-251) | GI50 (UACC-62) | GI50 (UO-31) | GI50 (SF-295) | GI50 (SNB-75)
CCOC(=O)N/N=C(\CC)NO | > 100 µM (inactive) | > 100 µM (inactive) | > 100 µM (inactive) | > 100 µM (inactive) | > 100 µM (inactive) | > 100 µM (inactive) | > 100 µM (inactive) | > 100 µM (inactive) | > 100 µM (inactive) | > 100 µM (inactive) | > 100 µM (inactive) | > 100 µM (inactive) | > 100 µM (inactive) | > 100 µM (inactive) | > 100 µM (inactive) | > 100 µM (inactive) | > 100 µM (inactive) | > 100 µM (inactive) | – | –
N#CC(c1ccccc1)c1cccc2ccccc12 (stereo unspecified) | 20.1 µM (inactive) | 40.8 µM (inactive) | 36.7 µM (inactive) | 90.2 µM (inactive) | 26 µM (inactive) | 21.8 µM (inactive) | 21.3 µM (inactive) | 33.6 µM (inactive) | > 100 µM (inactive) | 39.8 µM (inactive) | 47.5 µM (inactive) | 25.7 µM (inactive) | – | 53.5 µM (inactive) | 12.3 µM (inactive) | 48.9 µM (inactive) | 52.2 µM (inactive) | 28.2 µM (inactive) | 46.7 µM (inactive) | > 100 µM (inactive)
CCOC(=O)C1=NN(c2ccccc2)C(=O)/C1=C\NC(=S)C(N)=S | 66.1 µM (inactive) | 28.1 µM (inactive) | 43.4 µM (inactive) | > 100 µM (inactive) | 38 µM (inactive) | 70.6 µM (inactive) | 37.8 µM (inactive) | 36.1 µM (inactive) | 54.5 µM (inactive) | > 100 µM (inactive) | 40.9 µM (inactive) | – | 29.2 µM (inactive) | 64.9 µM (inactive) | 35.2 µM (inactive) | 42.3 µM (inactive) | 29.3 µM (inactive) | 19.2 µM (inactive) | 74.6 µM (inactive) | 47.3 µM (inactive)
COc1cc(C=O)ccc1O [VANILLIN] | > 100 µM (inactive) | > 100 µM (inactive) | > 100 µM (inactive) | > 100 µM (inactive) | > 100 µM (inactive) | > 100 µM (inactive) | > 100 µM (inactive) | > 100 µM (inactive) | > 100 µM (inactive) | > 100 µM (inactive) | > 100 µM (inactive) | > 100 µM (inactive) | – | > 100 µM (inactive) | > 100 µM (inactive) | > 100 µM (inactive) | – | > 100 µM (inactive) | > 100 µM (inactive) | > 100 µM (inactive)
COc1cc(/C=C2\C[C@H]3[C@@H]4CCc5cc(OCCN6CCCC6)ccc5[C@H]4CC[C@]3(C)C2=O)cc(OC)c1OC | 1.69 µM (inactive) | 1.48 µM (inactive) | 1.83 µM (inactive) | 1.77 µM (inactive) | 1.62 µM (inactive) | 1.69 µM (inactive) | 1.69 µM (inactive) | 1.65 µM (inactive) | 1.97 µM (inactive) | 1.91 µM (inactive) | 1.6 µM (inactive) | 1.66 µM (inactive) | 1.57 µM (inactive) | 2.3 µM (inactive) | 0.314 µM (active) | – | 2.52 µM (inactive) | 1.54 µM (inactive) | 1.79 µM (inactive) | –
O=C(O)CN1C=C(C(=O)c2cc3ccccc3n2S(=O)(=O)c2ccccc2)CCC1 | 68.1 µM (inactive) | 20.9 µM (inactive) | 69.7 µM (inactive) | > 100 µM (inactive) | 24.2 µM (inactive) | 37.1 µM (inactive) | 64.9 µM (inactive) | 49.9 µM (inactive) | 46.8 µM (inactive) | 66.1 µM (inactive) | 83.9 µM (inactive) | – | 54.5 µM (inactive) | > 100 µM (inactive) | 36.4 µM (inactive) | 76.7 µM (inactive) | 83 µM (inactive) | 30.4 µM (inactive) | 69.5 µM (inactive) | 27.5 µM (inactive)

Reference: ChEMBL document CHEMBL1201862, “PubChem BioAssay data set” (2004)
